Test results as given in EP2608770B1, “INHALABLE GASEOUS DRUG CONTAINING KRYPTON FOR TREATING NEURO-INTOXICATION” (L'Air Liquide Société Anonyme pour l'Etude et …, priority 2010, dated 2012).

Tested on: U2OS
Experiment: Cell death and apoptosis in U2OS cells exposed to cytotoxic agents (staurosporine, rotenone, antimycin A, menadione, mitoxantrone) under a krypton atmosphere, read by automated fluorescence microscopy
Assay type: cell-based
Conditions: cells kept in an atmosphere formed of krypton, measured after 6 and 16 hours of incubation
Description: Des essais ont été réalisés pour démontrer que le krypton présente un effet protecteur cérébral de par sa capacité à protéger la cellule du phénomène de la mort cellulaire programmée ou apoptose, qui est la conséquence ultime des neuro-intoxications telles que décrites dans le syndrome d'ischémie-reperfusion, d'addictions... […]
Les cellules ont été ensuite analysées dans un automate BD Pathway Fluorescence Microscope afin de déterminer les paramètres suivants : • apoptose cellulaire définit par GFP-H2B ou DAPI-condensation chromatine mesurable), • autophagie définit par GFP-LC3 puncta, • nécrose définit par l'exsudation de HMGB1 du noyau, • aberrations mitotiques définit par GFP-H2B et Red-Centrin, • niveau de stress ER définit par GFP-G3B puncta, • cycle cellulaire définit par l'incorporation de […] dans les cellules en phase S, ainsi que l'analyse du DNA. […]

For [Kr] [krypton], the “capacités fonctionnelles et intégrité physiques des cellules” value was “conservent leurs capacités fonctionnelles ainsi que leur intégrité physiques” and the “signes d'apoptose cellulaire” value (apoptosis defined by GFP-H2B or DAPI chromatin condensation) was “diminue les signes d'apoptose cellulaire”.
